Source: ChEMBL document CHEMBL1201862, “PubChem BioAssay data set” (2004)
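In this assay, cells in 96-well plates receive the compound at five concentrations for 48 hours. Endpoints are linearly interpolated between the surrounding concentrations. GI50 = concentration required for 50% inhibition of growth.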 The source made the active and inactive calls. Rule as the data show it: active = GI50 up to about 1.1 µM and inactive = higher.

Columns and labels:
Test in all cases: DTP human tumour cell line panel, 48 h
SK-OV-3 = tested on: SK-OV-3
LOX IMVI = tested on: LOX IMVI
CCRF-CEM = tested on: CCRF-CEM
Malme-3M = tested on: Malme-3M
K562 = tested on: K562
HCT-116 = tested on: HCT-116
TK-10 = tested on: TK-10
UO-31 = tested on: UO-31
SN12C = tested on: SN12C
UACC-257 = tested on: UACC-257
ACHN = tested on: ACHN
COLO 205 = tested on: COLO 205
NCI-H226 = tested on: NCI-H226
EKVX = tested on: EKVX
MDA-N = tested on: MDA-N
NCI/ADR-RES = tested on: NCI/ADR-RES
MDA-MB-231 = tested on: MDA-MB-231
OVCAR-5 = tested on: OVCAR-5
OVCAR-8 = tested on: OVCAR-8
SK-MEL-5 = tested on: SK-MEL-5

SMILES	GI50 (SK-OV-3)	GI50 (LOX IMVI)	GI50 (CCRF-CEM)	GI50 (Malme-3M)	GI50 (K562)	GI50 (HCT-116)	GI50 (TK-10)	GI50 (UO-31)	GI50 (SN12C)	GI50 (UACC-257)	GI50 (ACHN)	GI50 (COLO 205)	GI50 (NCI-H226)	GI50 (EKVX)	GI50 (MDA-N)	GI50 (NCI/ADR-RES)	GI50 (MDA-MB-231)	GI50 (OVCAR-5)	GI50 (OVCAR-8)	GI50 (SK-MEL-5)
CN1N=C(c2ccncc2)OC1c1ccc(Cl)c(Cl)c1 (stereo unspecified)	> 100 µM (inactive)	> 100 µM (inactive)	71.6 µM (inactive)	> 100 µM (inactive)	61.8 µM (inactive)	> 100 µM (inactive)	> 100 µM (inactive)	> 100 µM (inactive)	> 100 µM (inactive)	> 100 µM (inactive)	> 100 µM (inactive)	> 100 µM (inactive)	> 100 µM (inactive)	> 100 µM (inactive)	> 100 µM (inactive)	> 100 µM (inactive)	> 100 µM (inactive)	> 100 µM (inactive)	> 100 µM (inactive)	> 100 µM (inactive)
O=C(/C=C/c1ccccc1)CCN1CCOCC1	24.1 µM (inactive)	10.9 µM (inactive)	1.82 µM (inactive)	18.6 µM (inactive)	2.15 µM (inactive)	12.1 µM (inactive)	13.7 µM (inactive)	16.6 µM (inactive)	14.8 µM (inactive)	12.2 µM (inactive)	15.2 µM (inactive)	8.3 µM (inactive)	20.8 µM (inactive)	18.5 µM (inactive)	14.2 µM (inactive)	21.6 µM (inactive)	16.6 µM (inactive)	15.7 µM (inactive)	15.1 µM (inactive)	17.5 µM (inactive)
COC1(OC)CCN(Cc2ccccc2)C1=O	96.4 µM (inactive)	5.45 µM (inactive)	2.25 µM (inactive)	> 100 µM (inactive)	3.27 µM (inactive)	3.68 µM (inactive)	16 µM (inactive)	10.9 µM (inactive)	10.4 µM (inactive)	14.2 µM (inactive)	6.28 µM (inactive)	4.54 µM (inactive)	18.7 µM (inactive)	16 µM (inactive)	10.7 µM (inactive)	25.3 µM (inactive)	18.5 µM (inactive)	17.7 µM (inactive)	6.44 µM (inactive)	15.3 µM (inactive)
CCOC(=O)C(NS(=O)(=O)c1ccccc1)(C(F)(F)F)P(=O)(OCC(C)C)OCC(C)C (stereo unspecified)	> 100 µM (inactive)	> 100 µM (inactive)	> 100 µM (inactive)	> 100 µM (inactive)	> 100 µM (inactive)	> 100 µM (inactive)	> 100 µM (inactive)	98.2 µM (inactive)	> 100 µM (inactive)	> 100 µM (inactive)	> 100 µM (inactive)	> 100 µM (inactive)	> 100 µM (inactive)	> 100 µM (inactive)	> 100 µM (inactive)	> 100 µM (inactive)	> 100 µM (inactive)	> 100 µM (inactive)	> 100 µM (inactive)	> 100 µM (inactive)
COc1cc(S(=O)(=O)Nc2nc(-c3ccc(N4C(=O)C(CC(=O)O)SC4c4ccccc4O)cc3)cs2)ccc1Cl (stereo unspecified)	62.4 µM (inactive)	> 100 µM (inactive)	–	> 100 µM (inactive)	38.2 µM (inactive)	46.3 µM (inactive)	> 100 µM (inactive)	> 100 µM (inactive)	> 100 µM (inactive)	88.7 µM (inactive)	> 100 µM (inactive)	83.4 µM (inactive)	61.4 µM (inactive)	–	> 100 µM (inactive)	> 100 µM (inactive)	> 100 µM (inactive)	> 100 µM (inactive)	62.8 µM (inactive)	29 µM (inactive)
O=c1c2cc([N+](=O)[O-])ccc2n2n1Cc1ccccc1C2	> 100 µM (inactive)	> 100 µM (inactive)	> 100 µM (inactive)	> 100 µM (inactive)	> 100 µM (inactive)	> 100 µM (inactive)	> 100 µM (inactive)	53.3 µM (inactive)	> 100 µM (inactive)	> 100 µM (inactive)	> 100 µM (inactive)	> 100 µM (inactive)	> 100 µM (inactive)	31.5 µM (inactive)	> 100 µM (inactive)	73.6 µM (inactive)	> 100 µM (inactive)	–	> 100 µM (inactive)	84.3 µM (inactive)
c1ccc2c(c1)c(N1CCCCC1)cc1nc3c(cc(N4CCCCC4)c4ccccc43)nc12	> 100 µM (inactive)	> 100 µM (inactive)	> 100 µM (inactive)	> 100 µM (inactive)	> 100 µM (inactive)	> 100 µM (inactive)	–	> 100 µM (inactive)	> 100 µM (inactive)	> 100 µM (inactive)	> 100 µM (inactive)	> 100 µM (inactive)	> 100 µM (inactive)	> 100 µM (inactive)	> 100 µM (inactive)	> 100 µM (inactive)	> 100 µM (inactive)	> 100 µM (inactive)	> 100 µM (inactive)	> 100 µM (inactive)
COC(=O)Nc1nc2cc(Oc3ccc4nc(NC(=O)OC)[nH]c4c3)ccc2[nH]1	1.45 µM (inactive)	2.01 µM (inactive)	0.371 µM (active)	0.61 µM (active)	0.942 µM (active)	0.438 µM (active)	4.78 µM (inactive)	11.9 µM (inactive)	1.78 µM (inactive)	–	–	0.708 µM (active)	0.925 µM (active)	3.67 µM (inactive)	0.105 µM (active)	4.33 µM (inactive)	1.68 µM (inactive)	9.02 µM (inactive)	1.41 µM (inactive)	0.687 µM (active)
O=C(O)c1cccc(OCCO)c1	> 100 µM (inactive)	> 100 µM (inactive)	–	> 100 µM (inactive)	> 100 µM (inactive)	> 100 µM (inactive)	> 100 µM (inactive)	> 100 µM (inactive)	> 100 µM (inactive)	> 100 µM (inactive)	> 100 µM (inactive)	> 100 µM (inactive)	> 100 µM (inactive)	> 100 µM (inactive)	> 100 µM (inactive)	> 100 µM (inactive)	> 100 µM (inactive)	> 100 µM (inactive)	> 100 µM (inactive)	> 100 µM (inactive)
[N-]=[N+]=CC(=O)CCC(N)C(=O)O (stereo unspecified)	1.35 µM (inactive)	0.689 µM (active)	0.676 µM (active)	6.38 µM (inactive)	1.32 µM (inactive)	–	2.07 µM (inactive)	5.12 µM (inactive)	2.77 µM (inactive)	11 µM (inactive)	1.06 µM (active)	1.15 µM (inactive)	39.6 µM (inactive)	4.83 µM (inactive)	1.32 µM (inactive)	8.38 µM (inactive)	8.63 µM (inactive)	4.86 µM (inactive)	2.02 µM (inactive)	1.22 µM (inactive)
CCCC(=O)NC(Nc1ccc(F)cc1)(C(F)(F)F)C(F)(F)F	> 100 µM (inactive)	0.404 µM (active)	–	> 100 µM (inactive)	0.1 µM (active)	19.8 µM (inactive)	> 43.7 µM (inactive)	9.48 µM (inactive)	> 100 µM (inactive)	8.2 µM (inactive)	2.14 µM (inactive)	7.1 µM (inactive)	> 100 µM (inactive)	> 100 µM (inactive)	> 40.7 µM (inactive)	9.31 µM (inactive)	> 100 µM (inactive)	> 100 µM (inactive)	24.1 µM (inactive)	1.03 µM (active)
